Measurements as given in PMC9851200, “Multiparameter phenotypic screening for endogenous TFEB and TFE3 translocation identifies novel chemical series modulating lysosome function” (Autophagy, 2022).
Read-outs that look alike come from different tables or passages of the source.

Tests used:
SH-SY5Y cells [1] = experiment: AK (adenylate kinase) release ToxiLight cytotoxicity assay; further: reference of the scale not given here
SH-SY5Y cells [2] = experiment: Nuclear count from microscopy images (cellular growth and toxicity); further: reference of the scale not given here
SH-SY5Y cells [3] = tested on: SH-SY5Y cells; further: reference of the scale not given here
endogenous TFEB = experiment: TFEB nuclear translocation, immunocytochemistry high-content imaging; type: cell-based
endogenous TFE3 = experiment: TFE3 nuclear translocation, immunocytochemistry high-content imaging; type: cell-based
[4] = PKIS2 primary screening, DQ Red BSA intensity
[5] = PKIS2 primary screening, DQ Red BSA spot count
[6] = PKIS2 primary screen, DQ Red BSA intensity
[7] = PKIS2 primary screen, DQ Red BSA spot count

| Compound | AK (SH-SY5Y cells [1]; PKIS2 primary screening) | Nuclear Count (SH-SY5Y cells [2]; PKIS2 primary screening) | DQ Intensity (SH-SY5Y cells [3]; [4]) | DQ Spot (SH-SY5Y cells [3]; [5]) | TFEB % (endogenous TFEB; PKIS2 primary screening) [%] | TFE3 % (endogenous TFE3; PKIS2 primary screening) [%] | DQ Intensity (SH-SY5Y cells [3]; PKIS2 primary screening) | DQ Spot (SH-SY5Y cells [3]; PKIS2 primary screening) | further results |
| --- | --- | --- | --- | --- | --- | --- | --- | --- | --- |
| NCCCC(NC(=O)c1cc(Br)c(-c2ccnc3[nH]ccc23)s1)c1ccccc1.O=C(O)C(F)(F)F.O=C(O)C(F)(F)F (stereo not drawn) [UNC10225265A] | 80.18 | 128.28 | 112.08 | 100.65 | 4.66 | 12.13 | – | – | – |
| O=C(O)C(F)(F)F.O=C(O)C(F)(F)F.O=c1[nH]ccc2nc(N[C@@H]3CCCNC3)nc(Nc3ccc(S(=O)(=O)N4CCOCC4)cc3)c12 [UNC10225269A] | 88.07 | 106.18 | – | – | 8.33 | 12.97 | 101.94 | 104.22 | – |
| COc1cc2c(Nc3cccc(NC(=O)c4ccccc4)c3)ncnc2cc1OCCCN1CCOCC1 [UNC10225271A] | 98.71 | 122.91 | 90.70 | 104.52 | 3.87 | 10.54 | – | – | – |
| CNc1nccc(-c2c(-c3ccc(F)cc3)ncn2C2CCN(C)CC2)n1 [UNC10225274A] | 126.95 | 122.34 | – | – | 7.89 | 15.08 | 105.02 | 100.15 | – |
| CS(=O)(=O)CCNCc1nc(-c2ccc3ncnc(Nc4ccc(OCc5ccccc5)c(Cl)c4)c3c2)cs1.Cl [UNC10225279B] | 96.76 | 87.19 | 82.64 | 92.63 | 5.66 | 17.30 | – | – | – |
| Cc1cccc(Nc2nc(N[C@H]3CCCC[C@H]3N)ncc2C(N)=O)c1.Cl [UNC10225280A] | 87.17 | 90.29 | – | – | 7.12 | 21.69 | 129.29 | 106.20 | – |
| Cc1nnc(-c2ccc(C)c(-c3ccc(C(=O)Nc4ccc(NS(C)(=O)=O)cc4)cc3)c2)o1 [UNC10225285A] | 85.18 | 90.38 | – | – | 4.26 | 14.74 | 105.08 | 99.25 | – |
| C[C@@H](Oc1cc(-n2cnc3ccc(NC(=O)NC(C)(C)C)cc32)sc1C(N)=O)c1ccccc1Cl [UNC10225287A] | 76.21 | 136.32 | – | – | 3.50 | 9.35 | 115.96 | 109.60 | – |
| c1ccc(-c2n[nH]cc2-c2ccnc3ccccc23)nc1 [UNC10225289A] | 102.26 | 134.93 | – | – | – | – | – | – | DQ Intensity (SH-SY5Y cells [3]): 80.70; DQ Spot (SH-SY5Y cells [3]): 82.58; TFEB % (endogenous TFEB): 2.12%; TFE3 % (endogenous TFE3): 7.71% |
| COc1ccc2cc(-c3nc(-c4ccccc4C(C)C)[nH]c3-c3ccncc3)ccc2c1 [UNC10225291A] | 85.35 | 105.82 | 102.38 | 102.77 | 11.56 | 9.24 | – | – | – |
| COc1cccc(C2=C(N(C)c3ccccc3)C(=O)NC2=O)c1 [UNC10225293A] | 74.50 | 78.26 | 96.89 | 106.44 | 4.50 | 13.51 | – | – | – |
| COc1ccccc1CNC(=O)c1cc(C(=O)c2ccccc2C)c[nH]1 [UNC10225294A] | – | – | – | – | – | – | – | – | AK (SH-SY5Y cells [1]; PKIS2 primary screen): 95.17; Nuclear Count (SH-SY5Y cells [2]; PKIS2 primary screen): 105.84; DQ Intensity (SH-SY5Y cells [3]; [6]): 126.95; DQ Spot (SH-SY5Y cells [3]; [7]): 127.30; TFEB % (endogenous TFEB; PKIS2 primary screen): 4.46%; TFE3 % (endogenous TFE3; PKIS2 primary screen): 19.95% |
| Cn1cc(-c2ccc3c(c2)CCN3C(=O)Cc2cccc(F)c2)c2c(N)ncnc21 [UNC10225297A] | 109.17 | 104.97 | – | – | 6.82 | 15.69 | 118.40 | 112.51 | – |
| NS(=O)(=O)c1cccc(N/C=C2\C(=O)Nc3ccc(S(=O)(=O)Cc4c(Cl)cccc4Cl)cc32)c1 [UNC10225298A] | – | – | – | – | – | – | – | – | AK (SH-SY5Y cells [1]; PKIS2 primary screen): 117.06; Nuclear Count (SH-SY5Y cells [2]; PKIS2 primary screen): 112.41; DQ Intensity (SH-SY5Y cells [3]; [6]): 100.02; DQ Spot (SH-SY5Y cells [3]; [7]): 99.79; TFEB % (endogenous TFEB; PKIS2 primary screen): 5.78%; TFE3 % (endogenous TFE3; PKIS2 primary screen): 5.33% |
| Nc1nc(-c2ccccc2F)c(-c2ccnc3ccccc23)s1 [UNC10225301A] | 75.40 | 129.96 | 64.84 | 87.10 | 2.45 | 14.12 | – | – | – |
| CCC(CC)(CC)n1cnc2c(N)ncnc21 [UNC10225302A] | 115.78 | 100.18 | – | – | 11.64 | 9.37 | 92.29 | 100.17 | – |
| COc1cccc2c(-c3ccncc3)c(-c3ccc(F)cc3)nn12 [UNC10225305A] | 95.93 | 99.48 | 96.09 | 98.66 | 7.57 | 7.73 | – | – | – |
